Laboratory results taken from patent publication US20070009455A1 (priority 2003, published 2007).
≈ marks a conversion by molar mass, not a printed value.

Assays:
Human skin melanocytes = experiment: Whitening activity test: melanin production in skin melanocytes; format: cell-based; details: for Melanin production inhibitory activity (%): concentration of each test sample: 0.02%
Protocol: The whitening activity test based on […] of skin melanocytes was performed as the following method: • 1. Human skin melanocytes in MGM (Melanocyte Growth Media, Clonetics) media were incubated at a 5% CO2 incubator at 37° C. • 2. A predetermined number of cells (2×10^6) were cultured in75T culture flasks. When cell confluence was identified, test samples of a predetermined concentration were loaded in the cell cultures and incubated for 2-3 days. • 3. The cultures were removed, washed with phosphate buffered saline (PBS), and treated with trypsin solution, to harvest cells. • 4. The harvested cells were centrifuged to obtain cell pellets.
The colors of the cell pellets were observed. The cell pellets were dissolved in 1N NaOH and the absorbance was measured at 475 nm. • 5. The concentration of melanin was calculated by using absorbance values obtained from melanin standard and then converted to the concentration of melanin/the total protein concentration of melanocytes. […]=[(A−B)/A]×100
A: concentration of melain/concentration of protein in control
(control: melanocytes normally grown in a culture medium containing no test samples)
B: concentration of melain/concentration of protein in each test sample
To evaluate whitening activity, inhibitory activity of the compositions of Examples 7 and Comparative Examples 6-8 against melanin production in melanocytes of healthy persons were measured and the results are summarized in Table 13 below.

tyrosinase = experiment: Tyrosinase inhibitory activity test; format: biochemical
Protocol: Tyrosine used as a substrate in main processes of melanin biosynthesis, mushroom tyrosinase, or tyrosinase fragments separated from melanocytes was added to test samples and incubated for a predetermined time. The absorbance of dopachrome that was a reaction product was measured at an absorption wavelength to evaluate the whitening effects of the test samples. Tyrosinase inhibitory activity (%)=100−((ODexp−ODcon)/ODstd×100)
ODexp: Absorbance of test sample containing tyrosinase
ODcon: Absorbance of test sample containing no tyrosinase
ODstd: Absorbance of standard sample containing tyrosinase

[1] = Free radical scavenging activity test (DPPH)
Protocol: When methanol solutions of test samples were converted to clear solutions due to scavenging of relatively stable deep blue-colored DPPH(1,1-diphenyl-2-hydrazyl) radicals, the degree of reduction of the absorbance of the methanol solutions was measured at 516 nm. Free radical scavenging activity (%)=100−( (ODexp−ODcon)/ODstd×100)
ODexp: Absorbance of test sample containing DPPH
ODcon: Absorbance of test sample containing no DPPH
ODstd: Absorbance of standard sample containing DPPH

For `OC[C@H]1O[C@@H](Oc2ccc(O)cc2)[C@H](O)[C@@H](O)[C@@H]1O` [Albutin], which “Melanin production inhibitory activity (%)” value (Human skin melanocytes) is on record?
The value was 2.00%.

Which “Tyrosinase inhibitory activity (in words)” value (tyrosinase) does the source give for `O=c1cc(CO)occ1O` [Cojic acid] here?
Its value is “excellent tyrosinase inhibitory activity”.

And the “Melanin production inhibitory activity (%)” value (Human skin melanocytes)?
Its value is 22.62%.

With `Oc1ccc(/C=C/c2cc(O)cc(O)c2)cc1` [Resveratrol] as the molecule, how does the “IC50: 50% tyrosinase activity inhibition concentration” value (tyrosinase) read?
The value was 2 µg/mL (≈ 8.76 µM).

What about the “Tyrosinase inhibitory activity (in words)” value (tyrosinase) of the same molecule?
Its value is “excellent tyrosinase inhibitory activity”.

And the “Inhibitory activity of melanin production (in words)” value (Human skin melanocytes; 0.02%)?
Its value is “excellent inhibitory activity of melanin production”.

What about the “Melanin production inhibitory activity (%)” value (Human skin melanocytes) of the same molecule?
Its value is 53.17%.

With `O=C1O[C@H]([C@@H](O)CO)C(O)=C1O` [Vitamin C] as the molecule, how does the “Free radical scavenging (in words)” value [1] read?
The value was “effective free radical scavengers”.

And the “Melanin production inhibitory activity (%)” value (Human skin melanocytes)?
The value was 19.72%.
